Experiments:
nematode development = assay: Visible effect of drug treatment on nematode development; type: in vivo, C. elegans; conditions: at the concentrations tested in the SMN-1 assay
Method: (§1) RNAi feeding was performed as described (Kamath and Ahringer, 2003). RNAi clones belong to the Aringher gene library were used: JA:C41G7.1 (smn-1), JA:T18D3.7 (tsct-1), JA:WO3G1.7 (asm-3), JA:C07A12.7 (C07A12.7), JA:C10E2.3 (hda-4), JA:K09A9.4 (usp-33), JA:R01B10.1 (cpi-2), JA:K08B4.6 (cpi-1), JA:K06A4.3 (gsnl-1), JA:F23H11.4 (F23H11.4), JA:T18H9.7 (pacs-1), JA:C41G7.1 (smn-1) and MV_SV: mv_ZK455.4 (asm-2) from Marc Vidal's gene library (Kim et al., 2005). For smn-1 expression assays, gravid hermaphrodites were transferred to empty plasmid pL4440 or RNAi plates, incubated at 20°C for 48 hours and the next generation was analyzed at the L4 stage. For the drug assay, NGM plates were prepared at the indicated concentrations and the respective vehicle was used as a control, then proceeded as in the RNAi assay.

SMPD1 [1] = molecular target: T1, SMPD1 (Homo sapiens, UniProt P17405); assay: Immunofluorescence (CTCF) of SMPD1 in human SMA fibroblasts; type: cell-based; conditions: SMAII fibroblasts, 20µM, 24 h; untreated 105.8±5.64; p<0.0001
T1 construct: host or cells: human SMA type 2 patient fibroblasts (SMAII)
T1 sequence (P17405 47-631): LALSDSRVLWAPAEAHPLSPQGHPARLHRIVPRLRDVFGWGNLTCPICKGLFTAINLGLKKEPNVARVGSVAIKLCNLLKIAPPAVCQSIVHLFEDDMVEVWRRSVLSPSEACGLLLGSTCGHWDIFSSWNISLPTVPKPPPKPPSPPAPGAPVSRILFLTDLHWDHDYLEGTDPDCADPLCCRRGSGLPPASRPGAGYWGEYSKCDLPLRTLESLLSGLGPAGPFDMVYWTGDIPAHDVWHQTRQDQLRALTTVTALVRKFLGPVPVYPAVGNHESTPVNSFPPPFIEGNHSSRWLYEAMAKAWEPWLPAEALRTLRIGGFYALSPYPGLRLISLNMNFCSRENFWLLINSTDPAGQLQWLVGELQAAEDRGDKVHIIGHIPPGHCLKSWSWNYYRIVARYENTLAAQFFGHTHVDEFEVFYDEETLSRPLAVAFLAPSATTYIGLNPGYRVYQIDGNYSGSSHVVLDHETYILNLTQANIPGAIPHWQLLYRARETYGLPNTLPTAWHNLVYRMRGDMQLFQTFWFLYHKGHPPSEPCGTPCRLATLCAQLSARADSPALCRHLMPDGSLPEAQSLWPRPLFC
Method: Two human fibroblasts cell lines from SMA patients (GM03813, SMA type 2 patient, SMAII; and GM09677, SMA type 1 patient, SMAI) and one healthy control (GM03814, Control) were obtained and cultured following the manufacturer instructions. Fibroblasts were maintained in Eagle's Minimum Essential Medium (MEM) (Sigma) supplemented with 15% (v/v) non-inactivated fetal bovine serum (FBS) (Gibco), […] of L-Glutamine (Gibco), 1% (v/v) non-essential amino acids, and 20µg/ml of Penicillin-Streptomycin (Gibco). For western blot analysis, cells were plated at 3,000-4,000 cells/cm2 in 35mm dishes and cultured in supplemented MEM for 24 h. […]
(§2) Cultured cells were fixed with 4% paraformaldehyde (Sigma) for 10 min and cold methanol (Sigma) for 30 min more. […] Quantification of fluorescence intensity was performed blinded, using the NIH ImageJ software (Schindelin et al., 2012). Using phase contrast images, the cell perimeter was manually delimited and transferred to the corresponding fluorescence images. The Integrated Density (IntDen) was measured in the selected area of the cell. Three non-fluorescent surrounding regions were measured to set up the background readings. The fluorescence intensity was calculated using the following formula: Corrected Total Cell Fluorescence (CTCF) = IntDen (sum of the values of the pixels in the selection) - (area of the cell x mean fluorescence of the background).

SMN protein [2] = assay: Western blot of SMN in human SMA patient fibroblasts; type: cell-based; conditions: SMAII and SMAI fibroblasts, 5µM, 10µM, or 25µM, 24 h
Method: Fibroblasts were maintained in Eagle's Minimum Essential Medium (MEM) (Sigma) supplemented with 15% (v/v) non-inactivated fetal bovine serum (FBS) (Gibco), 0.5M of L-Glutamine (Gibco), 1% (v/v) non-essential amino acids, and 20µg/ml of Penicillin-Streptomycin (Gibco). For western blot analysis, cells were plated at 3,000-4,000 cells/cm2 in 35mm dishes and cultured in supplemented MEM for 24 h. For immunofluorescence experiments, 3,000 cells/well were plated in collagen-coated 1cm2 glass coverslips placed into four-well dishes and fixed in 4% paraformaldehyde (Sigma) in PBS.
Western blots were performed as previously described (Gou-Fabregas et al., 2009). Cell lysates were resolved in sodium dodecyl-sulfate polyacrylamide (SDS-PAGE) gels and transferred onto polyvinylidene difluoride (PVDF) Immobilon-P transfer membranes (Millipore, Burlington, MA, USA) using an Amersham Biosciences semidry Trans-Blot (Buckinghamshire, UK). Membranes were blotted with: anti-SMN (1: 5,000, Cat. No. 610646, BD Transduction Laboratories, Franklin Lakes, NJ, USA) and anti-SMPD1 (1: 300, Cat. No. 14609-1-AP, ProteinTech, Manchester, UK). To control the specific protein content per lane, membranes were reproved with anti-α-tubulin antibody (1: 50,000, Cat. No. T5168, Sigma). […]

SMPD1 [3] = molecular target: T1, SMPD1; assay: Immunofluorescence (CTCF) of SMPD1 in differentiated human SMA MNs; type: cell-based; conditions: SMAI MNs, 10µM, 24 h; untreated 126.7±5.74; p<0.0001
From the text: Three human iPSCs lines were used in the present work. The GM23411*B (Coriell Institute) iPSC cell line obtained from a healthy […] individual was used as control. The GM23240*B (Coriell Institute) iPSCs obtained from a fibroblast cell line of a […] SMA type 2 patient (2 copies SMN2; deletion exon7-8 in SMN1) was used as SMAII condition. SMAII patient was previously classified as SMA type 1, but several data supported re-classification to SMA type 2. The CS84iSMA-nxx (Cedar Sinai, Los Angeles, USA) iPSCs obtained from a lymphoblast cell line of a […] SMA type 1 patient (2 copies SMN2; deletion exon7-8 in SMN1) was used as SMAI condition. […]
as §2

SMN protein [4] = assay: Western blot of SMN in iPSC-differentiated human SMA MNs; type: cell-based; conditions: remaining doses of 5µM, 10µM, 20µM in SMAI and SMAII MNs, 24 h
From the text: Three human iPSCs lines were used in the present work. The GM23411*B (Coriell Institute) iPSC cell line obtained from a healthy […] individual was used as control. The GM23240*B (Coriell Institute) iPSCs obtained from a fibroblast cell line of a […] SMA type 2 patient (2 copies SMN2; deletion exon7-8 in SMN1) was used as SMAII condition. SMAII patient was previously classified as SMA type 1, but several data supported re-classification to SMA type 2. The CS84iSMA-nxx (Cedar Sinai, Los Angeles, USA) iPSCs obtained from a lymphoblast cell line of a […] SMA type 1 patient (2 copies SMN2; deletion exon7-8 in SMN1) was used as SMAI condition.
Human iPSCs were differentiated to MNs as previously described (de la Fuente et al., 2020; Du et al., 2015). Cell lines were cultured and expanded on Geltrex (Sigma)-coated plates in Essential 8 medium (Gibco). Neuroepithelial cells and MN progenitors were generated following the established protocol. To induce MN differentiation, MN progenitors were detached with Accutase (Gibco) and cultured in suspension in MN induction medium (DMEM/F12: NBM plus 1:1 supplemented with B27, L-glutamine [all from Gibco], 0.1mM ascorbic acid [Sigma], 3µM CHIR99021; 2µM SB431512, 2µM DMH1 [all from Cayman, Ann Harbor, MI, USA], 0.5µM retinoic acid [Sigma], and 0.1µM purmorphamine [Cayman]). […]

SMN-1 = SMN-1 level by head fluorescence in C. elegans strain mCherry::smn-1 (PHX2635) after drug treatment; type: in vivo; conditions: for level of SMN-1, repeated experiments on different days: Fig. 11, vs non-treated animals
From the text: C. elegans strains were cultivated under standard conditions (Stiernagle, 2006). The strains used are as follows: PHX2635: smn-1(syb2635); BN1158: bqSi1152[pBN521(unc-119(+) eft-3p::Frt::mCh::his-58::Frt::UPRT)]II; bqSi577[pBN306(unc-119(+) myo-2p::GFP)] IV. unc-119(ed9)III . The Escherichia coli strains used were: OP50 and HT115.
The strain PHX2635: smn-1(syb2635) was generated by CRISPR technology, we introduced the coding sequence of the fluorescent protein m-Cherry upstream of the TAA stop codon of the C. elegans SMN1 homologous gene, smn-1, as indicated in the sequence: [formula]
as §1, with “For smn-1 expression assays, gravid hermaphrodites were transferred to empty plasmid pL4440 or RNAi plates, incubated at 20°C for 48 hours and the next generation was analyzed at the L4 stage.” left out
L4 worms were mounted in a coverslip with a 2% agarose pad. C. elegans confocal images were acquired using a Nikon A1R microscope equipped with a 60x Plan Apo lens of Numerical Aperture 1.4. Twelve pictures were taken for each worm to be integrated in a Z image. […] Laser intensity, gain and pixel scan speed remained constant along all sets of experiments.
For image analysis, we used FIJI software. The experimentalist drew manually a ROI containing between the second pharynx bulb and the mouth of the nematode. Within this area, mCherry expression was detected using an intensity threshold that remained constant along all images. This minimum intensity level was defined by the experimenter. Within the thresholded volume, we measured the integrated density using the plugin 3D object counter (Bolte and Cordelières, 2006). […]

SMILES | visible effect on nematode development (nematode development) | SMPD1 relative fluorescence in cell soma (CTCF) (SMPD1 [1]) | SMN protein level (SMN protein [2]) | SMPD1 relative fluorescence in cell soma (CTCF) (SMPD1 [3]) | SMN protein compared to untreated control (SMN protein [4]) | SMN-1 level after treatment exclusively during the adult stage (SMN-1; 100 µM, 48 hours, started at adulthood, vs untreated) | level of SMN-1, repeated experiments on different days (SMN-1; 100 µM) | level of SMN-1, repeated experiments on different days (SMN-1; 500 µM)
CCOC(=O)C1=C(COCCN)NC(C)=C(C(=O)OC)C1c1ccccc1Cl (stereo not shown) [amlodipine] | delay in nematode development | – | – | – | – | – | – | –
CN(C)CCCN1c2ccccc2CCc2ccc(Cl)cc21 [clomipramine] | did not show a visible negative effect | 56.59±4.03 | did not increase SMN protein level | 91.62±3.64 | No significant differences | significant increase | statistically significant increase | –
CNCCCN1c2ccccc2CCc2ccccc21 [desipramine] | delay in nematode development | – | – | – | – | – | – | statistically significant increase

From EP4609859A1, “INHIBITORS OF THE GENE SMPD1 FOR THE TREATMENT OF SPINAL MUSCULAR ATROPHY” (Universidad Pablo de Olavide, priority 2024, dated 2025)
